Test results published in US20240389581A1, “SYNERGISTIC PESTICIDAL COMPOSITIONS AND METHODS FOR DELIVERY OF INSECTICIDAL ACTIVE INGREDIENTS” (TERRAMERA, INC., priority 2021, published 2024).

Experiments:
[1] = test system: Trichoplusia ni (cabbage looper) larvae; assay: In-vitro insecticidal efficacy (mortality and bioactivity, treated artificial diet, Abbott and Colby formulas) against Trichoplusia ni; format: in vivo; conditions: aliphatic acid (salt) 500 ppm, alone or combined; for Survival Rate (100-(mortality + stunted)): Table 70B, Coragen 0.505 ppm (0.09292 ppm chlorantraniliprole)
Description: An artificial diet suitable for Trichoplusia ni (cabbage looper caterpillar) was prepared from a commercially available general purpose lepidoptera artificial diet premix (such as General Purpose Lepidoptera Diet available from Frontier Scientific Services, Newark, DE) and mixed in a heated liquid agar media (0.022 g agar per ml of water). The liquid artificial diet and agar media was then used to fill each well of a transparent 96-well treatment plate with 200 μL of the artificial diet and agar media, which was allowed to solidify at room temperature and stored at approximately 4 C.
A 20 μL treatment sample of each treatment formulation was then placed on top of the solidified artificial diet media in a well of a 96 well plate and allowed to dry overnight.
(§1) The following day, one neonate Trichoplusia ni (cabbage looper) larva (hatched from eggs obtained from the Benzon Research, Inc. of Carlisle, PA, USA) was added to each well of the plate, after which the wells were sealed with a perforated transparent film, allowing air and moisture exchange. The plates were kept in a suitable regulated indoor incubation environment and the larvae were allowed to feed on the treatment overlaid diet/agar media for 5 days. […] Each experiment contained 8 replicates (larvae cells) for each treatment.
(§2) While for SF<1, antagonism is present and for SF=1, the efficacy of the compounds is merely additive.
as §1, with “such as available” for “obtained”, “from” for “from the”
as §2

[2] = test system: Trichoplusia ni (cabbage looper) larvae; assay: In-planta insecticidal efficacy (sprayed green cabbage plants, larval survival, Abbott and Colby formulas) against Trichoplusia ni; format: in vivo; conditions: aliphatic acid 750 ppm, alone or combined; for Observed Efficacy, W: Abbott formula
Fusarium oxysporum = assay: Synergistic Growth Inhibition Assay (MIC / FIC index, 96-well microtiter, resazurin) against Fusarium oxysporum; format: cell-based; conditions: Compound B tested alone; 24 hour incubation
Description: In the Synergistic Growth Inhibition Assay used in accordance with some embodiments of the present disclosure, multiple dilutions of combinations of pesticidal active ingredient and at least one C6-C10 saturated or unsaturated aliphatic acid agents are tested in individual cells for inhibitory activity against a target pest or pathogenic organism. […] In a further such embodiment, the combinations of pesticidal active ingredient and C6-C10 (or alternatively C11 or C12) saturated or unsaturated aliphatic acid agents may be tested in increasing concentrations.
Thus, each well of the microtiter plate is a unique combination of the two agents, at which inhibitory efficacy of the combination against the target pest or pathogen can be determined.
In one embodiment according to the present disclosure, for each row of microtiter cells in the Synergistic Growth Inhibition Assay, the FIC index is calculated from the lowest concentration of the pesticidal active ingredient and one or more C6-C10 saturated or unsaturated aliphatic acid agents necessary to inhibit growth of a target pest or pathogen. The FIC of each component is derived by dividing the concentration of the agent present in that well of the microtiter plate by the minimal inhibitory concentration (MIC) needed of that agent alone to inhibit growth of the target pest or pathogen. […] The FIC index is calculated for each row as follows: […]

[3] = test system: Trichoplusia ni (cabbage looper) larvae; assay: In-planta insecticidal efficacy (sprayed green cabbage plants, larval survival, Abbott and Colby formulas) against Trichoplusia ni; format: in vivo; conditions: Exirel at […] ([…] cyantraniliprole), aliphatic acids at 750 ppm; for Observed Efficacy, W (%): Abbott formula vs 10% isopropanol control; for Survival Rate (%): in-planta, T. ni larvae on sprayed cabbage, 10% isopropanol
Description: Water and 10% isopropanol were tested as control treatments.
Green cabbage plants (Brassica oleracea var. capitate, Danish Ballhead cultivar) were grown from seed (available from West Coast Seeds, Delta, BC, Canada) in potting soil for 4-6 weeks in a pest-free indoor growing environment. At between 4-6 weeks of age, each cabbage plant was sprayed with 20 mL of treatment solution using a pressurized CO2 sprayer from approximately 18 inches above the plant, and allowed to dry.
as §2
Cyantraniliprole was provided as the active ingredient in Exirel® insecticide (available from FMC Corp., Philadephia, PA, USA), and is present as 10% w/w of the Exirel® insecticide product formulation.

[4] = Table 69B, Coragen 0.2525 ppm (0.04646 ppm chlorantraniliprole), in-vitro
[5] = Table 72, Coragen […] (0.104 ppm chlorantraniliprole)
[6] = Table 71, Coragen […] (0.105 ppm chlorantraniliprole)

Structure (SMILES): C/C=C/C=C/C(=O)[O-].[K+] [(2E,4E)-2,4 hexadienoic acid potassium salt]
- Survival Rate (100-(mortality + stunting)) [1, 4]: 95.83%
- Survival Rate (100-(mortality + stunted)) ([1]; in-vitro): 70.83%

Structure (SMILES): C=CCCCC(=O)O [5-hexenoic acid]
- Survival Rate (100-(mortality + stunting)) [1, 4]: 100.00%

Structure (SMILES): CCCCCC=CCC(=O)O [3-nonenoic acid]
- Survival Rate (100-(mortality + stunted)) ([1]; in-vitro): 95.83%

Structure (SMILES): CCCCCCC(C)C(=O)O (stereo not drawn) [2-methyloctanoic acid]
- Survival Rate (100-(mortality + stunting)) [1, 4]: 95.83%

Structure (SMILES): CCC/C=C/C(=O)[O-].[K+] [trans-2-hexenoic acid potassium salt]
- Survival Rate (100-(mortality + stunting)) [1, 4]: 91.67%
- Survival Rate (100-(mortality + stunted)) ([1]; in-vitro): 83.33%

Structure (SMILES): CCCCC/C=C/C(=O)O [Trans-2-octenoic acid, trans-2-octenoic acid]
- Survival Rate (100-(mortality + stunting)) [1, 4]: 70.83%
- Survival Rate (100-(mortality + stunted)) ([1]; in-vitro): 87.50%
- Survival Rate [2, 5]: 77.00%
- Observed Efficacy, W ([2]; Table 72, Coragen […]): 0.00%

Structure (SMILES): C/C=C/C=C/C(=O)O [(2E,4E)-2,4-hexadienoic acid]
- MIC (B) (Fusarium oxysporum): 125 µg/mL

Structure (SMILES): O=C(O)CCCCCCCCCO [10-hydroxydecanoic acid]
- Survival Rate (100-(mortality + stunting)) [1, 4]: 75.00%
- Survival Rate [2, 5]: 73.50%
- Observed Efficacy, W ([2]; Table 72, Coragen […]): 0.00%
- Survival Rate ([2]; Table 73, Coragen […] (0.104 ppm chlorantraniliprole)): 40.50%
- Observed Efficacy, W ([2]; Table 73, Coragen […]): 36.72%

Structure (SMILES): CCCCCCCC(=O)O [Octanoic acid]
- Survival Rate (100-(mortality + stunted)) ([1]; in-vitro): 95.83%

Structure (SMILES): CCCCCCCCC(C)C(=O)O (stereo not drawn) [2-methyldecanoic acid]
- Survival Rate (100-(mortality + stunting)) [1, 4]: 87.50%

Structure (SMILES): C/C=C/C=C/C(=O)O [(2E,4E)-2,4 hexadienoic acid]
- Survival Rate (100-(mortality + stunting)) [1, 4]: 79.17%

Structure (SMILES): CC/C=C/CC(=O)[O-].[K+] [trans-3-Hexenoic acid, potassium salt]
- Observed Efficacy, W (%) [3]: 7.1%
- Survival Rate (%) [3]: 70.8%

Structure (SMILES): CCC/C=C/C(=O)O [Trans-2-hexenoic acid, trans-2-hexenoic acid]
- Survival Rate (100-(mortality + stunting)) [1, 4]: 91.67%
- Survival Rate [2, 6]: 56.50%
- Observed Efficacy, W ([2]; Table 71, Coragen […]): 18.71%

Structure (SMILES): CCCCC=CCC(=O)O [3-Octenoic acid, 3-octenoic acid]
- Survival Rate (100-(mortality + stunting)) [1, 4]: 83.33%

Structure (SMILES): CC(O)CC(=O)O (stereo not drawn) [3-Hydroxybutyric acid, 3-hydroxybutyric acid]
- Survival Rate (100-(mortality + stunting)) [1, 4]: 95.83%

Structure (SMILES): CC/C=C/CC(=O)O [Trans-3-hexenoic acid, trans-3-hexenoic acid]
- Survival Rate (100-(mortality + stunting)) [1, 4]: 91.67%
- Survival Rate [2, 6]: 64.50%
- Observed Efficacy, W ([2]; Table 71, Coragen […]): 7.19%

Structure (SMILES): O=C(O)CCCCCCCCCCCO [12-hydroxydodecanoic acid]
- Survival Rate (100-(mortality + stunting)) [1, 4]: 91.67%

Structure (SMILES): CCCC(C)CC(=O)O (stereo not drawn) [3-methylhexanoic acid]
- Survival Rate (100-(mortality + stunting)) [1, 4]: 83.33%

Structure (SMILES): CCCCCCCC(O)CC(=O)O (stereo not drawn) [3-hydroxdecanoic acid]
- Survival Rate (100-mortality) ([1]; Table 69A, Coragen 0.2525 ppm (0.04646 ppm chlorantraniliprole), in-vitro): 100.00%
- Observed Efficacy (mortality), W ([1]; Table 69A, Coragen 0.2525 ppm, Abbott formula): 0.00%
- Survival Rate (100-(mortality + stunting)) [1, 4]: 87.50%
- Observed Efficacy (bioactivity), W ([1]; Table 69B, bioactivity = mortality + growth stunting, Coragen 0.2525 ppm, Abbott formula): 0.00%

Structure (SMILES): CCCCCCC/C=C/C(=O)O [Trans-2-decenoic acid, trans-2-decenoic acid]
- Survival Rate (%) [3]: 66.1%
- Survival Rate (100-(mortality + stunting)) [1, 4]: 79.17%
- Survival Rate [2, 5]: 81.00%
- Observed Efficacy, W ([2]; Table 72, Coragen […]): 0.00%

Structure (SMILES): CCCCCCCC/C=C/C(=O)O [trans-2-undecenoic acid]
- Survival Rate (100-(mortality + stunting)) [1, 4]: 87.50%

Structure (SMILES): CCCCCCCCCC(=O)O [Decanoic acid]
- Survival Rate (100-(mortality + stunting)) [1, 4]: 83.33%

Structure (SMILES): CCCCC(O)C(=O)O (stereo not drawn) [2-hydroxyhexanoic acid]
- Survival Rate (100-(mortality + stunting)) [1, 4]: 91.67%

Structure (SMILES): CCCCCCCCC(=O)O [Nonanoic acid]
- Survival Rate (100-(mortality + stunting)) [1, 4]: 95.83%
- Survival Rate (100-(mortality + stunted)) ([1]; in-vitro): 62.50%

Structure (SMILES): CCCCC(CC)C(=O)O (stereo not drawn) [2-ethylhexanoic acid]
- Survival Rate (100-(mortality + stunting)) [1, 4]: 95.83%

Structure (SMILES): C=CCCCCCCCC(=O)O [9-Decenoic acid, 9-decenoic acid]
- Observed Efficacy, W (%) [3]: −0.4%
- Survival Rate (%) [3]: 65.8%
- Survival Rate (100-(mortality + stunting)) [1, 4]: 91.67%

Structure (SMILES): CCCCCC(=O)O [Hexanoic acid]
- Survival Rate (100-(mortality + stunting)) [1, 4]: 87.50%
- Survival Rate (100-(mortality + stunted)) ([1]; in-vitro): 100%
- MIC (B) (Fusarium oxysporum): 290 µg/mL

Structure (SMILES): CCCCCCC(O)C(=O)O (stereo not drawn) [2-hydroxyoctanoic acid]
- Survival Rate (100-(mortality + stunting)) [1, 4]: 100.00%

Structure (SMILES): CCCCCCC(=O)O [Heptanoic acid]
- Survival Rate (100-(mortality + stunting)) [1, 4]: 91.67%

Structure (SMILES): CCCC=CCC(=O)O [3-heptenoic acid]
- Survival Rate (100-(mortality + stunted)) ([1]; in-vitro): 95.83%

Structure (SMILES): CCCCCCC(C)CC(=O)O (stereo not drawn) [3-methylnonanoic acid]
- Survival Rate (100-(mortality + stunting)) [1, 4]: 79.17%

Structure (SMILES): CC/C=C\CC(=O)O [cis-3-hexenoic acid]
- Survival Rate (100-(mortality + stunting)) [1, 4]: 83.33%

Structure (SMILES): CCCC/C=C/CC(=O)O [trans-3-octenoic acid]
- Survival Rate (100-(mortality + stunting)) [1, 4]: 83.33%

Structure (SMILES): CCC/C=C/C(=O)[O-].[K+] [trans-2-Hexenoic acid, potassium salt]
- Observed Efficacy, W (%) [3]: 11.3%
- Survival Rate (%) [3]: 73.6%

Structure (SMILES): CCC(C)CCC(=O)O (stereo not drawn) [4-methylhexanoic acid]
- Survival Rate (100-(mortality + stunting)) [1, 4]: 100.00%

Structure (SMILES): CCCCCCCCCCCC(=O)O [Dodecanoic acid]
- Survival Rate (100-(mortality + stunting)) [1, 4]: 79.17%

Structure (SMILES): CCCCCCCCCC(=O)[O-].[K+] [Potassium Caprate]
- Observed Efficacy, W (%) [3]: 5.5%
- Survival Rate (%) [3]: 69.7%

Structure (SMILES): CCCCCC/C=C/C(=O)O [trans-2-nonenoic acid]
- Survival Rate (100-(mortality + stunting)) [1, 4]: 75.00%
- Survival Rate (100-(mortality + stunted)) ([1]; in-vitro): 100%
